# Test results reported in PubChem BioAssay AID1963842 (Molecular Pharmacology Branch, DTP, NCI, 2024).
# Test system: 677734-321-R-J1-PDC complex spheroid viability
# Assay: Anticancer human tumor 677734-321-R-J1-PDC patient-derived soft tissue sarcoma cell line growth inhibition [POLQ]
# Settings: for IC50: curve of first compound; for viability, T/C: stronger effect = lower value
# Outline: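 Three-cell-type spheroids modelling solid tumor plus stroma served as the readout system; POL inhibitors were tested individually and in combination, concentration ranges set by clinical Cmax where known.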
# [1] = second compound 0.0316 µM, first compound 0.0316 µM
# [2] = second compound 0.0316 µM, first compound 0.1 µM
# [3] = second compound 0.0316 µM, first compound 0.316 µM
# [4] = second compound 0.0316 µM, first compound 1 µM
# [5] = second compound 0.0316 µM, first compound 3.16 µM
# [6] = second compound 0.0316 µM, first compound 10 µM
# [7] = second compound 0.1 µM, first compound 0.0316 µM
# [8] = second compound 0.1 µM, first compound 0.1 µM
# [9] = second compound 0.1 µM, first compound 0.316 µM
# [10] = second compound 0.1 µM, first compound 1 µM
# [11] = second compound 0.1 µM, first compound 3.16 µM
# [12] = second compound 0.1 µM, first compound 10 µM
# [13] = second compound 0.316 µM, first compound 0.0316 µM
# [14] = second compound 0.316 µM, first compound 0.1 µM
# [15] = second compound 0.316 µM, first compound 0.316 µM
# [16] = second compound 0.316 µM, first compound 1 µM
# [17] = second compound 0.316 µM, first compound 3.16 µM
# [18] = second compound 0.316 µM, first compound 10 µM
# [19] = second compound 1 µM, first compound 0.0316 µM
# [20] = second compound 1 µM, first compound 0.1 µM
# [21] = second compound 1 µM, first compound 0.316 µM
# [22] = second compound 1 µM, first compound 1 µM
# [23] = second compound 1 µM, first compound 3.16 µM
# [24] = second compound 1 µM, first compound 10 µM
# [25] = second compound 3.16 µM, first compound 0.0316 µM
# [26] = second compound 3.16 µM, first compound 0.1 µM
# [27] = second compound 3.16 µM, first compound 0.316 µM
# [28] = second compound 3.16 µM, first compound 1 µM
# [29] = second compound 3.16 µM, first compound 3.16 µM
# [30] = second compound 3.16 µM, first compound 10 µM
# [31] = second compound 10 µM, first compound 0.0316 µM
# [32] = second compound 10 µM, first compound 0.1 µM
# [33] = second compound 10 µM, first compound 0.316 µM
# [34] = second compound 10 µM, first compound 1 µM
# [35] = second compound 10 µM, first compound 3.16 µM
# [36] = second compound 10 µM, first compound 10 µM
# 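Note: spheroids exposed to compounds for one week.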
# 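Throughout, for viability, T/C: 100% = vehicle DMSO treated spheroids.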
smiles,measurement,setting,value
CCc1cc2c(N3CCc4c(cc(Cn5ccnc5)cc4-c4cn(C)nc4C(F)(F)F)C3=O)ccnc2c(OC)n1 + Nc1ccc(C#CCN(C(=O)Cc2ncc(C(F)(F)F)cc2C(F)(F)F)c2ccc(F)cc2)nn1,IC50,second compound 0.0316 µM,> 10 µM
same,IC50,second compound 0.1 µM,4.78 µM
same,IC50,second compound 0.316 µM,7.55 µM
same,IC50,second compound 1 µM,8.72 µM
same,IC50,second compound 3.16 µM,> 10 µM
same,IC50,second compound 10 µM,5.44 µM
same,"viability, T/C",[1],89.5%
same,"viability, T/C",[2],124%
same,"viability, T/C",[3],110%
same,"viability, T/C",[4],70.7%
same,"viability, T/C",[5],63.5%
same,"viability, T/C",[6],38.4%
same,"viability, T/C",[7],88.5%
same,"viability, T/C",[8],111%
same,"viability, T/C",[9],101%
same,"viability, T/C",[10],87.6%
same,"viability, T/C",[11],54.9%
same,"viability, T/C",[12],41.8%
same,"viability, T/C",[13],120%
same,"viability, T/C",[14],103%
same,"viability, T/C",[15],87.1%
same,"viability, T/C",[16],88.9%
same,"viability, T/C",[17],86.1%
same,"viability, T/C",[18],38.1%
same,"viability, T/C",[19],127%
same,"viability, T/C",[20],109%
same,"viability, T/C",[21],100%
same,"viability, T/C",[22],79.1%
same,"viability, T/C",[23],63.9%
same,"viability, T/C",[24],48%
same,"viability, T/C",[25],95.7%
same,"viability, T/C",[26],108%
same,"viability, T/C",[27],113%
same,"viability, T/C",[28],79.8%
same,"viability, T/C",[29],64.3%
same,"viability, T/C",[30],50.9%
same,"viability, T/C",[31],102%
same,"viability, T/C",[32],83.9%
same,"viability, T/C",[33],83.7%
same,"viability, T/C",[34],90.5%
same,"viability, T/C",[35],62.6%
same,"viability, T/C",[36],35.9%
COc1cc2cc(C(=O)CCC(=O)O)sc2cc1OC + Nc1ccc(C#CCN(C(=O)Cc2ncc(C(F)(F)F)cc2C(F)(F)F)c2ccc(F)cc2)nn1,IC50,second compound 0.0316 µM,> 10 µM
same,IC50,second compound 0.1 µM,> 10 µM
same,IC50,second compound 0.316 µM,> 10 µM
same,IC50,second compound 1 µM,> 10 µM
same,IC50,second compound 3.16 µM,> 10 µM
same,IC50,second compound 10 µM,> 10 µM
same,"viability, T/C",[1],105%
same,"viability, T/C",[2],105%
same,"viability, T/C",[3],103%
same,"viability, T/C",[4],93.3%
same,"viability, T/C",[5],108%
same,"viability, T/C",[6],104%
same,"viability, T/C",[7],103%
same,"viability, T/C",[8],98.5%
same,"viability, T/C",[9],100%
same,"viability, T/C",[10],98.5%
same,"viability, T/C",[11],115%
same,"viability, T/C",[12],110%
same,"viability, T/C",[13],104%
same,"viability, T/C",[14],102%
same,"viability, T/C",[15],103%
same,"viability, T/C",[16],108%
same,"viability, T/C",[17],105%
same,"viability, T/C",[18],116%
same,"viability, T/C",[19],105%
same,"viability, T/C",[20],91.4%
same,"viability, T/C",[21],105%
same,"viability, T/C",[22],104%
same,"viability, T/C",[23],95.2%
same,"viability, T/C",[24],109%
same,"viability, T/C",[25],97%
same,"viability, T/C",[26],98.1%
same,"viability, T/C",[27],113%
same,"viability, T/C",[28],109%
same,"viability, T/C",[29],109%
same,"viability, T/C",[30],112%
same,"viability, T/C",[31],104%
same,"viability, T/C",[32],110%
same,"viability, T/C",[33],94.6%
same,"viability, T/C",[34],95%
same,"viability, T/C",[35],107%
same,"viability, T/C",[36],86.3%
